Test results reported in the NIST ThermoML archive (doi:10.1016/j.jct.2006.06.001).

Legend:
[1] = 81.5 kPa, Liquid
[2] = xn = mol fraction of the nth substance listed; conditions: 81.5 kPa, Liquid

CC(O)CO (centres undefined) [1,2-propanediol]
[1]
Conditions | mass density [kg/m3]
293.15 K | 1036.3
303.15 K | 1028.89
313.15 K | 1021.35
323.15 K | 1013.68
333.15 K | 1005.86
343.15 K | 997.86

COCCO [2-methoxyethan-1-ol]
[1]
Conditions | mass density [kg/m3]
293.15 K | 964.86
303.15 K | 955.68
313.15 K | 946.38
323.15 K | 936.95
333.15 K | 927.38
343.15 K | 917.64

COCCO [2-methoxyethan-1-ol] + CC(C)O
mass density [kg/m3], [2]
Conditions | 293.15 K | 303.15 K | 313.15 K | 323.15 K | 333.15 K | 343.15 K
x1 = 0.0823 | 800.06 | 791.49 | 782.64 | 773.45 | 763.86 | 753.79
x1 = 0.1565 | 813.56 | 804.91 | 796 | 786.79 | 777.21 | 767.2
x1 = 0.2367 | 828.13 | 819.4 | 810.43 | 801.18 | 791.6 | 781.64
x1 = 0.3166 | 842.63 | 833.83 | 824.81 | 815.54 | 805.96 | 796.02
x1 = 0.4015 | 858.01 | 849.14 | 840.08 | 830.78 | 821.21 | 811.31
x1 = 0.4766 | 871.62 | 862.69 | 853.59 | 844.26 | 834.69 | 824.82
x1 = 0.5605 | 886.76 | 877.79 | 868.64 | 859.3 | 849.72 | 839.87
x1 = 0.6403 | 901.1 | 892.08 | 882.9 | 873.54 | 863.96 | 854.14
x1 = 0.7179 | 914.98 | 905.92 | 896.72 | 887.34 | 877.76 | 867.96
x1 = 0.7925 | 928.26 | 919.16 | 909.94 | 900.55 | 890.96 | 881.18
x1 = 0.8593 | 940.12 | 931 | 921.74 | 912.34 | 902.77 | 892.99
x1 = 0.9585 | 957.65 | 948.49 | 939.2 | 929.78 | 920.21 | 910.45
